Values after ≈ are worked out from the molar mass of the structure shown. Like-named read-outs stand apart in the source and are kept apart here.
How the values were obtained:
PA-026, blaNDM = assay: MIC / checkerboard with ATM; type: cell-based, P. aeruginosa; set-up: key to Susceptibility category: S: susceptible; I: intermediate; R: resistant
PA-009, blaGES = assay: MIC / checkerboard with ATM; type: cell-based, P. aeruginosa; set-up: key to Susceptibility category: S: susceptible; I: intermediate; R: resistant
PA-021, blaIMP = assay: MIC / checkerboard with ATM; type: cell-based, P. aeruginosa; set-up: key to Susceptibility category: S: susceptible; I: intermediate; R: resistant; conditions: for MIC: Pseudomonas aeruginosa
[1] = test system: ATM-Susceptible CPPA (n = 11); assay: MIC distribution over clinical isolates; type: cell-based, P. aeruginosa; conditions: Pseudomonas aeruginosa
PA-002, blaIMP = assay: Time–kill assay; type: cell-based, P. aeruginosa; conditions: 24 h
Method: (§1) Aliquots (50 μL) were taken from the incubation mixture at regular time intervals (t = 0, 3, 6, and 24 h), serially diluted in 0.85% NaCl solution, and plated on BAP. Bacterial colonies were counted, and the data are presented as the means of at least three independent experiments.

PA-017, blaNDM = assay: Time–kill assay; type: cell-based, P. aeruginosa; conditions: 24 h
Method: as §1

PA-039, blaNDM = assay: MIC / checkerboard with ATM; type: cell-based, P. aeruginosa; set-up: key to Susceptibility category: S: susceptible; I: intermediate; R: resistant; conditions: PA-039
PA-032, blaIMP = assay: MIC / checkerboard with ATM; type: cell-based, P. aeruginosa; set-up: key to Susceptibility category: S: susceptible; I: intermediate; R: resistant; conditions: for MIC: Pseudomonas aeruginosa
PA-014, blaGES = assay: MIC / checkerboard with ATM; type: cell-based, P. aeruginosa; set-up: key to Susceptibility category: S: susceptible; I: intermediate; R: resistant
[2] = test system: NDM-1-Producing P. aeruginosa (PA-017, blaNDM); assay: MIC / checkerboard with ATM; type: cell-based; set-up: key to Susceptibility category: S: susceptible; I: intermediate; R: resistant; conditions: PA-017
PA-036, blaNDM = assay: MIC / checkerboard with ATM; type: cell-based, P. aeruginosa; set-up: key to Susceptibility category: S: susceptible; I: intermediate; R: resistant; conditions: PA-036
PA-031, blaNDM = assay: MIC / checkerboard with ATM; type: cell-based, P. aeruginosa; set-up: key to Susceptibility category: S: susceptible; I: intermediate; R: resistant; conditions: for MIC: Pseudomonas aeruginosa
PA-034, blaNDM = assay: MIC / checkerboard with ATM; type: cell-based, P. aeruginosa; set-up: key to Susceptibility category: S: susceptible; I: intermediate; R: resistant; conditions: PA-034
PA-033, blaNDM = assay: MIC / checkerboard with ATM; type: cell-based, P. aeruginosa; set-up: key to Susceptibility category: S: susceptible; I: intermediate; R: resistant; conditions: for MIC: Pseudomonas aeruginosa

For `C[C@H]1[C@H](NC(=O)/C(=N\OC(C)(C)C(=O)O)c2csc(N)n2)C(=O)N1S(=O)(=O)O` [ATM, aztreonam], the “Susceptibility to ATM” value (PA-026, blaNDM; PA-026, ATM alone) was “S (S (sensitive, MIC ≤ 8 mg/L))”, the Susceptibility category (PA-026, blaNDM; PA-026, Table S2) was “S” and the MIC (PA-026, blaNDM; Pseudomonas aeruginosa, read-out: MIC of ATM, PA-026, ATM alone (5 at 0 mg/L)) was 8 µg/mL. For the same compound, the “Susceptibility to ATM” value (PA-009, blaGES; PA-009, ATM alone) was “R (R (resistant, MIC ≥ 32 mg/L))”, the Susceptibility category (PA-009, blaGES; PA-009, Table S2) was “R” and the MIC (PA-009, blaGES; Pseudomonas aeruginosa, read-out: MIC of ATM, PA-009, ATM alone (5 at 0 mg/L)) was 32 µg/mL. The “Susceptibility to ATM” value (PA-021, blaIMP; PA-021, ATM alone) was “S (S (sensitive, MIC ≤ 8 mg/L))”, the Susceptibility category (PA-021, blaIMP; PA-021, Table S2) was “S” and the MIC (PA-021, blaIMP; PA-021, Table S2, read-out: MIC value) was 1 µg/mL. The MIC (PA-021, blaIMP; read-out: MIC of ATM, PA-021, ATM alone (5 at 0 mg/L)) was 1 µg/mL, the MIC50 ([1]; read-out: MIC50 of ATM, 5 at 0 mg/L) was 4 µg/mL (≈ 9.19 µM) and the MIC90 ([1]; read-out: MIC90 of ATM, 5 at 0 mg/L) was 8 µg/mL (≈ 18.4 µM). For the same compound, the “Log CFU/mL, ATM only” value (PA-002, blaIMP; ATM 1/2 MIC) was 9.02 Log CFU/mL, the “Log CFU/mL, ATM only” value (PA-002, blaIMP; ATM 1/4 MIC) was 9.48 Log CFU/mL and the “Log CFU/mL, ATM only” value (PA-002, blaIMP; ATM 1 MIC) was 8.15 Log CFU/mL. For the same compound, the “Log CFU/mL, ATM only” value (PA-002, blaIMP; ATM 2 MIC) was 5.50 Log CFU/mL, the “Log CFU/mL, ATM only” value (PA-017, blaNDM; ATM 1/2 MIC) was 9.97 Log CFU/mL and the “Log CFU/mL, ATM only” value (PA-017, blaNDM; ATM 1/4 MIC) was 10.74 Log CFU/mL. For the same compound, the “Log CFU/mL, ATM only” value (PA-017, blaNDM; ATM 1 MIC) was 6.52 Log CFU/mL, the “Log CFU/mL, ATM only” value (PA-017, blaNDM; ATM 2 MIC) was 0.12 Log CFU/mL and the “Susceptibility to ATM” value (PA-039, blaNDM; ATM alone) was “I (I (intermediate, MIC = 16 mg/L))”. For the same compound, the Susceptibility category (PA-039, blaNDM; Table S2) was “R”, the “Susceptibility to ATM” value (PA-032, blaIMP; PA-032, ATM alone) was “S (S (sensitive, MIC ≤ 8 mg/L))” and the Susceptibility category (PA-032, blaIMP; PA-032, Table S2) was “S”. The MIC (PA-032, blaIMP; PA-032, Table S2, read-out: MIC value) was 4 µg/mL, the MIC (PA-032, blaIMP; read-out: MIC of ATM, PA-032, ATM alone (5 at 0 mg/L)) was 4 µg/mL and the “Susceptibility to ATM” value (PA-014, blaGES; PA-014, ATM alone) was “I (I (intermediate, MIC = 16 mg/L))”. For the same compound, the Susceptibility category (PA-014, blaGES; PA-014, Table S2) was “I”, the MIC (PA-014, blaGES; Pseudomonas aeruginosa, read-out: MIC of ATM, PA-014, ATM alone (5 at 0 mg/L)) was 16 µg/mL and the “Susceptibility to ATM” value ([2]; ATM alone) was “I (I (intermediate, MIC = 16 mg/L))”. The Susceptibility category ([2]; Table S2) was “I”, the “Susceptibility to ATM” value (PA-036, blaNDM; ATM alone) was “I (I (intermediate, MIC = 16 mg/L))” and the Susceptibility category (PA-036, blaNDM; Table S2) was “I”. The “Susceptibility to ATM” value (PA-031, blaNDM; PA-031, ATM alone) was “S (S (sensitive, MIC ≤ 8 mg/L))”, the Susceptibility category (PA-031, blaNDM; PA-031, Table S2) was “S” and the MIC (PA-031, blaNDM; PA-031, Table S2, read-out: MIC value) was 8 µg/mL. For the same compound, the MIC (PA-031, blaNDM; read-out: MIC of ATM, PA-031, ATM alone (5 at 0 mg/L)) was 4 µg/mL, the “Susceptibility to ATM” value (PA-034, blaNDM; ATM alone) was “I (I (intermediate, MIC = 16 mg/L))” and the Susceptibility category (PA-034, blaNDM; Table S2) was “I”. For the same compound, the “Susceptibility to ATM” value (PA-033, blaNDM; PA-033, ATM alone) was “S (S (sensitive, MIC ≤ 8 mg/L))”, the Susceptibility category (PA-033, blaNDM; PA-033, Table S2) was “S” and the MIC (PA-033, blaNDM; PA-033, Table S2, read-out: MIC value) was 2 µg/mL. It also gave an MIC (PA-033, blaNDM; read-out: MIC of ATM, PA-033, ATM alone (5 at 0 mg/L)) of 2 µg/mL.

— PMC11672637, “7-O-Carboxylic Acid-Substituted 3-O-Alkyl Difluoroquercetin; An Aztreonam-Potentiating Agent Against Carbapenemase-Producing Pseudomonas aeruginosa Through Simultaneous Inhibition of Metallo-β-Lactamase and Efflux Pump” (Antibiotics, 2024)
